# From patent US20250290117A1, “MOLECULAR PHENOTYPIC ANTIMICROBIAL SUSCEPTIBILITY TESTING” (priority 2024, published 2025)
# Experiments:
# [1] = test system: pathogens of clinical samples; assay: Molecular phenotypic antimicrobial susceptibility test of clinical samples, extraction DNA purification step prior to PCR (Table 6); assay type: cell-based
# Protocol: (§1) Detection of Molecular Phenotypic Antimicrobial Susceptibility. Disclosed herein are the methods for the detection of phenotypic antimicrobial susceptibility via molecular methods. The present invention describes how a specimen 100 with a known microbial load is incubated and then exposed to a panel of antimicrobial agents to determine sensitivity (prevention of growth) or resistance (allowance of growth) to the specific antimicrobial agents tested utilizing molecular methods.
# Sample Collection. Specimens 100 are collected from patients using sterile collection processes that are employed in routine clinical care. Specimens are transported to the testing facility in boric acid preservative.
# Preparation of the Specimens for Testing. […] The process for pathogen isolation includes steps of harvesting the pathogen (e.g., via centrifugation), isolating pathogen DNA via a DNA isolation and/or purification kit, and performing PCR on the pathogen DNA via PCR components (e.g., primers, enzymes, buffers) as would be known to the skilled artisan. […] This aliquot is used for antimicrobial susceptibility testing if indicated based on the pathogen detection results. […] Specimens 100 with lower pathogen loads could also be utilized in the antibiotic susceptibility phase of testing with or without a longer incubation period.
# (§2) Preparation of Antimicrobial Susceptibility Testing Plates. Antimicrobial solutions are prepared at known concentrations. The specific antimicrobials and their concentrations are selected based on the pathogen of interest and the described antimicrobial resistance breakpoints for that specimen pathogen and antimicrobial combination. These antimicrobials have been selected based on those commonly utilized by healthcare providers in routine clinical care for the specific type of suspected infection. The number and types of antimicrobials utilized can be customized based on the infection source, pathogen detected, patient-specific factors such as allergies or other health conditions (e.g., chronic kidney disease or concurrent medication use), or healthcare provider preferences such as antimicrobial availability or cost.
# The antimicrobial solutions are prepared in liquid culture media (such as Muller Hinton Broth) to achieve the desired antimicrobial concentration and are then stored at −80° C. until use. For a given specimen, each antimicrobial is tested at a single or multiple antimicrobial concentration(s) which is its established breakpoints for sensitivity. The antimicrobial solutions are prepared and plated out for each specific pathogen. […] This allows for evaluation of pathogen load when no antimicrobial is present.
# Specimen Exposure to Antimicrobial Agents. The 1 mL aliquot of the specimen 100 previously mixed with culture media and incubated is obtained. Using optical density measurements as a guide, the specimen 100 is diluted to 0.5 McFarland.
# Antimicrobial exposure plates are typically placed into an incubator for 12-16 hours.
# Nucleic Acid Amplification of Antimicrobial Agent Exposed Pathogens. The antimicrobial exposure plate is removed after the period of incubation. The specimen then undergoes a purification or lysis step. For example, the specimen may undergo a purification step (e.g., magnetic bead-based or other separation protocol to isolate genetic material). In another example, the specimen may undergo a cell lysis step. For example, buffer (e.g., lysis buffer) may be added and incubated in the thermal cycler for preparation for direct PCR. Next, the specimen may undergo a polymerase chain reaction (PCR) testing protocol, whereby a semi-quantitative PCR method is utilized. This may be completed either with or without a specific extraction protocol step. The pathogens can be individually targeted and detected, or a universal genetic sequence can be utilized to detect the antimicrobial susceptibility of the specimen as a whole.
# [2] = test system: E. coli; assay: Molecular phenotypic antimicrobial susceptibility test, specimen with two detected pathogens incubated together without isolation; assay type: cell-based, Escherichia coli; settings: E. coli in specimen with two detected pathogens (E. coli and M. morganii) incubated together; for Ct of Sensitive Breakpoint: Ct of controls (average) 15.93; for Molecular Antimicrobial Susceptibility Result: at sensitive breakpoint
# Protocol: as §1
# (§3) Sample Collection. Specimens 100 are collected from patients using sterile collection processes that are employed in routine clinical care. Specimens are transported to the testing facility in boric acid preservative. Specimens 100 are subsequently divided into a first sample 104 and a second sample 108.
# (§4) Preparation of the Specimens for Testing. The specimens 100 are put through a pathogen identification process using PCR technology (e.g., using the first sample 104). The process for pathogen isolation includes steps of harvesting the pathogen (e.g., via centrifugation), isolating pathogen DNA via a DNA isolation and/or purification kit, and performing PCR on the pathogen DNA via PCR components (e.g., primers, enzymes, buffers) as would be known to the skilled artisan. Simultaneously, an additional aliquot of the same specimen (e.g., the second sample 108) is placed with liquid culture media and incubated for 4-6 hours. This aliquot is used for antimicrobial susceptibility testing if indicated based on the pathogen detection results. After pathogen identification is completed and if more than 10,000 cells/mL of bacteria (e.g., eligible bacteria) are detected in the source specimen, the second sample 108 then enters the antimicrobial susceptibility phase of testing. Specimens 100 with lower pathogen loads could also be utilized in the antibiotic susceptibility phase of testing with or without a longer incubation period.
# as §2
# (§5) The antimicrobial solutions are prepared in liquid culture media (such as Muller Hinton Broth) to achieve the desired antimicrobial concentration and are then stored at −80° C. until use. For a given specimen, each antimicrobial is tested at a single or multiple antimicrobial concentration(s) which is its established breakpoints for sensitivity. The antimicrobial solutions are prepared and plated out for each specific pathogen. This allows ease of use on the day of testing after defrosting the plate 112. Table 1, which illustrates the results of molecular phenotypic antimicrobial susceptibility testing when more than one organism is present in the source specimen, provides an example of an antimicrobial plate 112 prepared for this purpose. Of note, control wells containing only culture media are present on all plates 112. This allows for evaluation of pathogen load when no antimicrobial is present.
# (§6) Specimen Exposure to Antimicrobial Agents. The 1 mL aliquot of the specimen 100 previously mixed with culture media and incubated is obtained. Using optical density measurements as a guide, the specimen 100 is diluted to 0.5 McFarland. […]
# [3] = test system: M. morganii; assay: as above; assay type: cell-based, Morganella morganii; settings: M. morganii in specimen with two detected pathogens (E. coli and M. morganii) incubated together; for Ct of Sensitive Breakpoint: Ct of controls (average) 19.99; for Molecular Antimicrobial Susceptibility Result: at sensitive breakpoint
# Protocol: as §1, §3, §4, §2, §5, §6
# [4] = E. coli, clinical sample of r10-r24
# [5] = E. coli, clinical sample of r158-r172
# [6] = K. aerogenes, clinical sample of r136-r150
# [7] = K. pneumoniae, clinical sample of r121-r135
# [8] = M. morganii, clinical sample of r55-r69
# [9] = M. morganii, clinical sample of r70-r84
# [10] = P. mirabilis, clinical sample of r25-r39
# [11] = P. mirabilis, clinical sample of r40-r54
SMILES,"Molecular Antibiotic Susceptibility Result [1, 4]","Molecular Antibiotic Susceptibility Result [1, 5]","Molecular Antibiotic Susceptibility Result [1, 6]","Molecular Antibiotic Susceptibility Result [1, 7]","Molecular Antibiotic Susceptibility Result [1, 8]","Molecular Antibiotic Susceptibility Result [1, 9]","Molecular Antibiotic Susceptibility Result [1, 10]","Molecular Antibiotic Susceptibility Result [1, 11]",Ct of Sensitive Breakpoint [2],Molecular Antimicrobial Susceptibility Result [2],Ct of Sensitive Breakpoint [3],Molecular Antimicrobial Susceptibility Result [3],further results
CC1(C)S[C@@H]2[C@H](NC(=O)[C@H](N)c3ccccc3)C(=O)N2[C@H]1C(=O)O [Ampicillin],Resistant,Sensitive (Antimicrobial wells with pathogen load detected below the control wells (typically >2 cycle thresholds later) may be reported as Sensitive),Resistant,Resistant,Resistant,Resistant,Sensitive (Antimicrobial wells with pathogen load detected below the control wells (typically >2 cycle thresholds later) may be reported as Sensitive),Sensitive (Antimicrobial wells with pathogen load detected below the control wells (typically >2 cycle thresholds later) may be reported as Sensitive),15.14,Resistant,20.73,Resistant,"Ct ([1]; E. coli, clinical sample of r158-r172, Ct Control Avg 20.146): 29.961; Molecular Antibiotic Susceptibility Result ([1]; E. faecalis, clinical sample of r93-r99): Sensitive (Antimicrobial wells with pathogen load detected below the control wells (typically >2 cycle thresholds later) may be reported as Sensitive); Ct ([1]; E. faecalis, clinical sample of r93-r99, Ct Control Avg 22.987): 31.697; Molecular Antibiotic Susceptibility Result ([1]; E. faecalis, clinical sample of r100-r106): sensitive; Ct ([1]; E. faecalis, clinical sample of r100-r106, Ct Control Avg 23.073): 37.6; Molecular Antibiotic Susceptibility Result ([1]; E. faecalis, clinical sample of r107-r113): sensitive; Ct ([1]; E. faecalis, clinical sample of r107-r113, Ct Control Avg 22.144): 29.684; Molecular Antibiotic Susceptibility Result ([1]; E. faecalis, clinical sample of r114-r120): Sensitive (Antimicrobial wells with pathogen load detected below the control wells (typically >2 cycle thresholds later) may be reported as Sensitive); Ct ([1]; E. faecalis, clinical sample of r114-r120, Ct Control Avg 20.822): 33.01; Molecular Antibiotic Susceptibility Result ([1]; E. faecalis, clinical sample of r151-r157): Sensitive (Antimicrobial wells with pathogen load detected below the control wells (typically >2 cycle thresholds later) may be reported as Sensitive); Ct ([1]; E. faecalis, clinical sample of r151-r157, Ct Control Avg 20.56): Undet; Ct ([1]; K. aerogenes, clinical sample of r136-r150, Ct Control Avg 19.994): 19.504; Ct ([1]; K. pneumoniae, clinical sample of r121-r135, Ct Control Avg 24.272): 21.189; Ct ([1]; M. morganii, clinical sample of r55-r69, Ct Control Avg 28.86): 25.767; Ct ([1]; M. morganii, clinical sample of r70-r84, Ct Control Avg 27.053): 25.947; Ct ([1]; P. mirabilis, clinical sample of r25-r39, Ct Control Avg 26.064): 34.177; Ct ([1]; P. mirabilis, clinical sample of r40-r54, Ct Control Avg 26.987): 35.741"
Cc1nnc(SCC2=C(C(=O)O)N3C(=O)[C@@H](NC(=O)Cn4cnnn4)[C@H]3SC2)s1 [Cefazolin],Sensitive (Antimicrobial wells with pathogen load detected below the control wells (typically >2 cycle thresholds later) may be reported as Sensitive),Sensitive (Antimicrobial wells with pathogen load detected below the control wells (typically >2 cycle thresholds later) may be reported as Sensitive),Resistant,Sensitive (Antimicrobial wells with pathogen load detected below the control wells (typically >2 cycle thresholds later) may be reported as Sensitive),Resistant,Resistant,Resistant,Sensitive (Antimicrobial wells with pathogen load detected below the control wells (typically >2 cycle thresholds later) may be reported as Sensitive),15.46,Resistant,21.60,Resistant,
